Laboratory results reported in patent US20260297129A1, “PEPTIDES AS SELECTIVE IL-23 RECEPTOR INHIBITORS” (SANOFI, priority 2023, published 2026).
≈ marks a conversion by molar mass, not a printed value. Like-named read-outs stand apart in the source and are kept apart here. Numbered stars: 1 amine (or outer) side, 2 acyl side, 3 side chain; on linkers, the order of the positions; unused ones are H or OH. Bridge positions count the residues as written; N and C are the ends. Square brackets hold non-standard residues; d marks the D form. Peptide text beside a SMILES is read from it. * marks the point of attachment. Trp(7-Me) = Cc1cccc2c(C[C@H](N)C(=O)O)c[nH]c12; Sebacoyl = O=C(CCCCCCCCC(=O)[*:2])[*:1]; 2Nal = N[C@@H](Cc1ccc2ccccc2c1)C(=O)O; 3Pal = N[C@@H](Cc1cccnc1)C(=O)O; Lys(Me) = CNCCCC[C@H](N)C(=O)O; Thp = NC1(C(=O)O)CCOCC1; Me2NCH2CH2 = CN(C)CC*; Aib = CC(C)(N)C(=O)O; Sar = CNCC(=O)O

Key:
[1] = Solubility of peptide compounds in buffer formulations (Table 5); assay type: physicochemical; conditions: target 1 mg/ml
Summary of the method: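 Solubility was quantified by UHPLC-UV, comparing 1:10-diluted filtrate peak areas with a DMSO reference standard and correcting for extinction coefficients. Samples were prepared from dried DMSO stock at 1 mg/mL nominal in pH 1.2 HCl, pH 6.5 or pH 7.4 phosphate (50 mM), and agitated 2 h.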

[2] = Protease stability in simulated intestinal fluids (FaSSIF) (Table 7); assay type: in vitro ADME; conditions: fassif with pancreatin, 37° C.
Summary of the method: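 Percent parent remaining was derived from LC-MS/MS peak areas normalised to time 0, set at 100%. Sampling at 0, 60, 120 and 240 min, quenched in ethanol with 0.1% HCOOH. Final peptide 1 μM, 37° C, SIF containing pancreatin.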

[3] = Protease stability in simulated gastric fluids (FaSSGF) (Table 7); assay type: in vitro ADME; conditions: fassgf with pepsin, 60 min, 37° C., read-out: Remaining percentage of peptide compound, FaSSGF 60 (min)
Summary of the method: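 Peptides at 1 μM final were incubated at 37 °C in simulated gastric fluid with pepsin (320 mg per 100 mL SGF concentrate). Samples were quenched with ethanol (0.1% HCOOH) at 0, 60, 120 and 240 min and analysed by LC-MS/MS. Percent remaining is the peak area relative to T0 (100%).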

[4] = target: T1, human IL-23R (Homo sapiens, UniProt Q5VWK5); experiment: Inhibition of IL-23 binding to IL-23R as measured by ELISA (Table 8); conditions: human IL23 coated 1 μg/ml; human IL-23R-Fc 0.1 μg/ml; 60 min; read-out: Human ELISA IL23/IL23R IC50
T1 sequence (Q5VWK5 24-353 limits assumed): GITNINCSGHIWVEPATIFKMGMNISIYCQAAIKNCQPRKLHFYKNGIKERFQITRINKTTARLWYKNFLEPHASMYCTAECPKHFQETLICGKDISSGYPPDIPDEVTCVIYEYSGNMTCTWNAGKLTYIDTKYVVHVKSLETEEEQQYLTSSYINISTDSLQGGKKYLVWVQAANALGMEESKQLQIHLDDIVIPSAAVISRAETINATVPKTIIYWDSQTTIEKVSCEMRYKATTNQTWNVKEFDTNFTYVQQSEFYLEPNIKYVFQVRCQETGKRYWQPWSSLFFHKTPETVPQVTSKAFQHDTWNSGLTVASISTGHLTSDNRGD
Method: Antagonism of compounds for human interleukin-23 receptor inhibitors, was determined by an ELISA assay.
A 384-well plate was coated with 50 μl/well of human IL23 at a final concentration of 1 μg/ml and incubated overnight at 4° C. The wells were washed 3 times with 80 μl wash buffer and blocked with 80 μl blocking buffer for 60 minutes at room temperature and washed again. 20 μl of serially diluted test peptides was added to each well and subsequently 20 μl of recombinant human IL-23R-Fc chimera at final concentration of 0.1 μg/ml. The plate was incubated for 60 minutes at room temperature. After the wells were washed, bound IL23R-Fc was detected with goat anti-hu-IgG1-HRP antibody. Signals were visualized with QUANTABLU fluorogenic peroxidase substrate.

[5] = test system: IL-23 induced STAT3 signaling (IL-23 receptor) in HEK-Blue IL-23 cells; experiment: Inhibition of IL-23 induced STAT3 signaling in HEK-Blue IL-23 cells, SEAP reporter (Table 9); assay type: cell-based; conditions: human IL23 0.25 ng/ml, overnight, read-out: Inhibition of IL-23 induced pSTAT3 (IC50 nM)
Summary of the method: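 STAT3-driven SEAP output measured at OD 620–655 nm after 45 min QUANTI-Blue development of supernatant, with dose-response fits. Peptides were given 60 min ahead of 0.25 ng/ml (final) human IL-23, followed by overnight culture at 37 °C; 10,000 HEK-Blue IL-23 cells per well.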

solubility at 2 h ([1]; Buffer pH 1.1 (head; method: 50 mM HCl pH 1.2), 2 h agitation, read-out: Solubility, Buffer pH 1.1): ≥ 1390 µg/mL | solubility at 2 h ([1]; aqueous buffer, 50 mM phosphate buffer pH 6.5, 2 h agitation, read-out: Solubility, Buffer pH 6.5): 120 µg/mL (≈ 73.6 µM) | solubility at 2 h ([1]; aqueous buffer, 50 mM phosphate buffer pH 7.4, 2 h agitation, read-out: Solubility, Buffer pH 7.4): 80 µg/mL (≈ 49.1 µM) | remaining at 1 h, 1 µM ([2]; 60 min, read-out: Remaining percentage of peptide compound, FaSSIF 60 (min)): 80% | remaining at 2 h, 1 µM ([2]; 120 min, read-out: Remaining percentage of peptide compound, FaSSIF 120 (min)): 78% | remaining at 4 h, 1 µM ([2]; 240 min, read-out: Remaining percentage of peptide compound, FaSSIF 240 (min)): 74% | remaining at 1 h, 1 µM [3]: 97% | IC50 [4]: 0.63 nM
SMILES: Cc1cccc2c(C[C@@H]3NC(=O)CCCCCCCCC(=O)N(C)CCCC[C@@H](C(=O)N[C@@H](CC(N)=O)C(=O)N[C@@H](Cc4cccnc4)C(=O)N(C)CC(N)=O)NC(=O)C(C)(C)NC(=O)[C@H](Cc4ccc5ccccc5c4)NC(=O)[C@H](Cc4ccc(OCCN(C)C)cc4)NC(=O)C4(CCOCC4)NC(=O)[C@H](CCC(N)=O)NC3=O)c[nH]c12 [compound 19] ([Trp(7-Me)]Q[Thp]Y(Me2NCH2CH2)[2Nal][Aib][Lys(Me)]N[3Pal][Sar]-NH2; linker N-7 via Sebacoyl)
IC50 [5]: 0.24 nM
